How the values were obtained:
rats = assay: Acute toxicity with intravenous administration, rats; type: in vivo, S.D. strain rats; conditions: 14 days
Description: (§1) In this Example, the acute toxicity with intravenous administration of the non-radioactive labeling composition to rats or mice was evaluated. Namely, sterilized, pyrogen-free and oxygen-free water (1.0 ml) was added to a vial containing "FDSn-RBC" to make a stannous chloride solution (20 μmol/ml, […]). The resultant solution was intravenously administered to male and female ICR strain mice and S.D. strain rats. After 14 days, the accumulative death percentage was determined, and the lethal dose 50 (LD50) was calculated by the Litchfield-Wilcoxon's method.
The dose of the non-radioactive labeling composition to human beings may be 9.48 μg/kg (with the assumption that a total amount of one vial of FDSn-COL is administered to a person of 60 kilograms in bodyweight) as stannous chloride at the maximum in case of using for preparation of ^99m Tc-labeled tin colloid, and 31.95 μg/kg (corresponding to 20 μg/kg of stannous ion) in case of using for labeling of red blood cells in a human body. When these doses are compared with the LD50 values of female rats which are considered to be the most sensitive among the tested animals, said dose is about 1/1790 that of the LD50 value in case of preparation of ^99m Tc-labeled tin colloid and about 1/530 that of the LD50 value in case of labeling of red blood cells in a human being.

mice = assay: Acute toxicity with intravenous administration, mice; type: in vivo, ICR strain mice; conditions: 14 days
Description: as §1

Molecule `[Cl][Sn][Cl]` [stannous chloride] has an LD50 (rats; female rats) of 17 ± 2 mg/kg, an LD50 (rats; male rats) of 18 ± 3 mg/kg and an LD50 (mice; female mice) of 28 ± 3 mg/kg. The LD50 (mice; male mice) was 33 ± 3 mg/kg.

From patent publication US5096693A, “Stable stannous chloride composition for labeling with radioactive technetium” (Nihon Medi-Physics Co., Ltd., priority 1984, dated 1992)
